Tests used:
Chymase = target: T1, Chymase (Homo sapiens, UniProt P23946); assay: Inhibition of human recombinant chymase
T1 sequence (P23946 whole entry): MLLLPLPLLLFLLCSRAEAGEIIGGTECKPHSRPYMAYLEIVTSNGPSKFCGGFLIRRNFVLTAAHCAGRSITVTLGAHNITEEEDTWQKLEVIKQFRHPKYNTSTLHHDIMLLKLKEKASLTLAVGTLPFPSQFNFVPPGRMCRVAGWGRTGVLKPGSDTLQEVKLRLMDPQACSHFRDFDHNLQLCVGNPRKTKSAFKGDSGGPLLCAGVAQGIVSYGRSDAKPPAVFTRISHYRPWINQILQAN

[1] = Inhibition of bovine pancreatic alpha chymotrypsin; design: species or system Bos taurus
[2] = Inhibition of bovine pancreatic trypsin; design: species or system Bos taurus
Cathepsin G = target: T2, Cathepsin G (Homo sapiens, UniProt P08311); assay: Inhibition of human neutrophil cathepsin G
T2 sequence (P08311 whole entry): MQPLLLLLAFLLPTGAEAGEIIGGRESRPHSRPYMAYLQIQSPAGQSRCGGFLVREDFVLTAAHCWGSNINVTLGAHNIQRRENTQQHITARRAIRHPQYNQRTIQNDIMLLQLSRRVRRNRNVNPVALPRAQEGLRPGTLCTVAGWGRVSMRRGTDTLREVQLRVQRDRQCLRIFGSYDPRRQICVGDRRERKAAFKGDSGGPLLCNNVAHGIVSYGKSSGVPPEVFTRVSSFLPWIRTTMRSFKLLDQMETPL

Neutrophil elastase = target: T3, Neutrophil elastase (Homo sapiens, UniProt P08246); assay: Inhibition of human neutrophil elastase
T3 sequence (P08246 whole entry): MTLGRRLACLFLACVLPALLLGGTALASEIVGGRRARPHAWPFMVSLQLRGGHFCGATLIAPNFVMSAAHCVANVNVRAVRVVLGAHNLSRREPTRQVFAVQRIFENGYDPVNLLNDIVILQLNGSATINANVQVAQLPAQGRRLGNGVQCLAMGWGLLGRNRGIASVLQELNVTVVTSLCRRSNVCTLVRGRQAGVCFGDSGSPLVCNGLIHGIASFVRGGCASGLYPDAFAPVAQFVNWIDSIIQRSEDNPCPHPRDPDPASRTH

IC50 (Chymase) | SMILES | also measured
> 10 µM | O=C1CN(S(=O)(=O)c2ccc(Cl)cc2)C(=O)C(Cc2ccc3ccccc3c2)CN1 (racemic) | –
> 10 µM | O=C1CN(S(=O)(=O)c2ccc(Cl)cc2)C(=O)C(Cc2cccnc2)CN1 (racemic) | –
> 10 µM | O=C1CN(S(=O)(=O)c2ccc(Cl)cc2)C(=O)C(Cc2ccncc2)CN1 (racemic) | –
– | COc1ccc(Cl)cc1CC1CNC(=O)CN(S(=O)(=O)c2ccc(Cl)cc2)C1=O (racemic) | IC50 [1]: 0.3 µM; IC50 [2]: > 10 µM; IC50 (Cathepsin G): 2.9 µM; IC50 (Neutrophil elastase): > 10 µM
> 10 µM | O=C1CN(S(=O)(=O)c2ccc(Cl)cc2)C(=O)C(CC2CCCCC2)CN1 (racemic) | –
0.043 µM | CC(C)C[C@H](NC(=O)[C@@H](NC(=O)N[C@@H](Cc1ccccc1)C(=O)O)C1CCN=C(N)N1)C(=O)N[C@H](C=O)Cc1ccccc1 (some centres undefined) [CHYMOSTATIN] | –

Source: ChEMBL document CHEMBL1139926, “Identification of 6-substituted 4-arylsulfonyl-1,4-diazepane-2,5-diones as a novel scaffold for human chymase inhibitors” (Bioorg Med Chem Lett, 2007)
